Test results reported in ChEMBL document CHEMBL1152560, “Substituted 2-arylbenzothiazoles as kinase inhibitors: hit-to-lead optimization” (Bioorg Med Chem, 2009).

How the values were obtained:
[1] = molecular target: G protein-coupled receptor kinase 4 (Homo sapiens) (UniProt P32298); test: Residual activity of GRK4 at 10 uM by microplate scintillation counting
[2] = molecular target: PAS domain-containing serine/threonine-protein kinase (Homo sapiens) (UniProt Q96RG2); test: Residual activity of PASK at 1 uM by microplate scintillation counting
[3] = molecular target: Proto-oncogene tyrosine-protein kinase receptor Ret (Homo sapiens) (UniProt P07949); test: Residual activity of RET at 10 uM by microplate scintillation counting
[4] = molecular target: Serine/threonine-protein kinase PAK 3 (Homo sapiens) (UniProt O75914); test: Residual activity of PAK3 at 0.1 uM by microplate scintillation counting
[5] = molecular target: Platelet-derived growth factor receptor alpha (Homo sapiens) (UniProt P16234); test: Residual activity of PDGFRalpha at 0.1 uM by microplate scintillation counting
[6] = molecular target: Serine/threonine-protein kinase PAK 2 (Homo sapiens) (UniProt Q13177); test: Residual activity of PAK2 at 10 uM by microplate scintillation counting
[7] = molecular target: Fibroblast growth factor receptor 1 (Homo sapiens) (UniProt P11362); test: Residual activity of wild type FGF-R1 at 10 uM by microplate scintillation counting
[8] = molecular target: Casein kinase I isoform alpha (Homo sapiens) (UniProt P48729); test: Residual activity of CK1alpha1 at 0.1 uM by microplate scintillation counting
[9] = molecular target: Death-associated protein kinase 1 (Homo sapiens) (UniProt P53355); test: Residual activity of DAPK1 at 0.1 uM by microplate scintillation counting
[10] = molecular target: Tyrosine-protein kinase Fer (Homo sapiens) (UniProt P16591); test: Residual activity of FER at 10 uM by microplate scintillation counting
[11] = molecular target: CDK1/Cyclin E (Homo sapiens) (UniProt P06493+P24864); test: Residual activity of CDK1/Cyclin E at 1 uM by microplate scintillation counting; assay type: protein-complex assay
[12] = molecular target: T1, Aurora kinase C (Homo sapiens) (UniProt Q9UQB9); test: Residual activity of Aurora-C at 10 uM by microplate scintillation counting
T1 sequence (whole entry): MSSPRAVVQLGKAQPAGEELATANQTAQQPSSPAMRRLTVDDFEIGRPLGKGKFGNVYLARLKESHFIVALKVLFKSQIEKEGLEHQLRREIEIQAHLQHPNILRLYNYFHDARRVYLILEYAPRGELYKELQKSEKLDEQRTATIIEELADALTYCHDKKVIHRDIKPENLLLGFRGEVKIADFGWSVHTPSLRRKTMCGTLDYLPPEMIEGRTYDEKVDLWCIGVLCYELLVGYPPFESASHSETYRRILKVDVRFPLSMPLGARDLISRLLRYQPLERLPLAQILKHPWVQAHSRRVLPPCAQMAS

[13] = molecular target: Serine/threonine-protein kinase WNK3 (Homo sapiens) (UniProt Q9BYP7); test: Residual activity of WNK3 at 10 uM by microplate scintillation counting
[14] = molecular target: RAC-gamma serine/threonine-protein kinase (Homo sapiens) (UniProt Q9Y243); test: Residual activity of AKT3 at 10 uM by microplate scintillation counting
[15] = molecular target: T2, Activin receptor type-1 (Homo sapiens) (UniProt Q04771); test: Residual activity of ACV-R1 at 0.1 uM by microplate scintillation counting
T2 sequence (whole entry): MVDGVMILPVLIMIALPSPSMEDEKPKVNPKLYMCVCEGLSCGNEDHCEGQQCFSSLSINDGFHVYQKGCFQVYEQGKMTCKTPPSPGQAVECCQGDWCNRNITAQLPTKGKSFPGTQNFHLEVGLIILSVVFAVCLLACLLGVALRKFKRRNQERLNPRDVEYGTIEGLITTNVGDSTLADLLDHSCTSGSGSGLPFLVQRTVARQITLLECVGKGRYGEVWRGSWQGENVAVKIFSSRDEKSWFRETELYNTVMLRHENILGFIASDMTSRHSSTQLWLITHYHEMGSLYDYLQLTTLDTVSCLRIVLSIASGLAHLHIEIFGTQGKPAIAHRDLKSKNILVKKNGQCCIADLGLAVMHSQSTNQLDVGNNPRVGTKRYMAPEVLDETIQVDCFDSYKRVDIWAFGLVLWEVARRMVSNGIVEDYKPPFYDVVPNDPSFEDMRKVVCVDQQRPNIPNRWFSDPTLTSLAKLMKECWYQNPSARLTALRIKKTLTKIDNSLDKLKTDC

[16] = molecular target: Glycogen synthase kinase-3 alpha (Homo sapiens) (UniProt P49840); test: Residual activity of GSK3alpha at 1 uM by microplate scintillation counting
[17] = molecular target: T3, Serine/threonine-protein kinase TBK1 (Homo sapiens) (UniProt Q9UHD2); test: Residual activity of TBK1 at 0.1 uM by microplate scintillation counting
T3 sequence (whole entry): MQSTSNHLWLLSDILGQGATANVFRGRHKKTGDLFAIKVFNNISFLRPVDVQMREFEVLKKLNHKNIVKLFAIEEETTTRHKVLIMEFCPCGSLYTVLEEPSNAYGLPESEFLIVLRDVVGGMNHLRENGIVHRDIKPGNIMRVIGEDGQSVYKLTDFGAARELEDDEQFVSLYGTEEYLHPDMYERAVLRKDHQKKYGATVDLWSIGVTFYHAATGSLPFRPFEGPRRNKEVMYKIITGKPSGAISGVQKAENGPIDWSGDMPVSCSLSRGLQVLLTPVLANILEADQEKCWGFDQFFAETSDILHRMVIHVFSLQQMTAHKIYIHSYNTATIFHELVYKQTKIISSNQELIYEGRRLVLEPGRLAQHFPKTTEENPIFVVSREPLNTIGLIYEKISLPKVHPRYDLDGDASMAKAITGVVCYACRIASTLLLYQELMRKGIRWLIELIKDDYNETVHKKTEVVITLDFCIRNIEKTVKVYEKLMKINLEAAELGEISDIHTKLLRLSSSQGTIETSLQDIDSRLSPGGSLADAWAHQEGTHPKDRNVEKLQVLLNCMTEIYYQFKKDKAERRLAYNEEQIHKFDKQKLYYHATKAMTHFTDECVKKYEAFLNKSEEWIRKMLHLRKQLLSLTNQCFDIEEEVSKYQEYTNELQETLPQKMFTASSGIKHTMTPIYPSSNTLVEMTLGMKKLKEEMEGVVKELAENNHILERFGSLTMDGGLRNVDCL

[18] = molecular target: Epidermal growth factor receptor (Homo sapiens, UniProt P00533); test: Residual activity of wild type EGF-R at 0.1 uM by microplate scintillation counting
Sequence of Epidermal growth factor receptor (P00533 whole entry): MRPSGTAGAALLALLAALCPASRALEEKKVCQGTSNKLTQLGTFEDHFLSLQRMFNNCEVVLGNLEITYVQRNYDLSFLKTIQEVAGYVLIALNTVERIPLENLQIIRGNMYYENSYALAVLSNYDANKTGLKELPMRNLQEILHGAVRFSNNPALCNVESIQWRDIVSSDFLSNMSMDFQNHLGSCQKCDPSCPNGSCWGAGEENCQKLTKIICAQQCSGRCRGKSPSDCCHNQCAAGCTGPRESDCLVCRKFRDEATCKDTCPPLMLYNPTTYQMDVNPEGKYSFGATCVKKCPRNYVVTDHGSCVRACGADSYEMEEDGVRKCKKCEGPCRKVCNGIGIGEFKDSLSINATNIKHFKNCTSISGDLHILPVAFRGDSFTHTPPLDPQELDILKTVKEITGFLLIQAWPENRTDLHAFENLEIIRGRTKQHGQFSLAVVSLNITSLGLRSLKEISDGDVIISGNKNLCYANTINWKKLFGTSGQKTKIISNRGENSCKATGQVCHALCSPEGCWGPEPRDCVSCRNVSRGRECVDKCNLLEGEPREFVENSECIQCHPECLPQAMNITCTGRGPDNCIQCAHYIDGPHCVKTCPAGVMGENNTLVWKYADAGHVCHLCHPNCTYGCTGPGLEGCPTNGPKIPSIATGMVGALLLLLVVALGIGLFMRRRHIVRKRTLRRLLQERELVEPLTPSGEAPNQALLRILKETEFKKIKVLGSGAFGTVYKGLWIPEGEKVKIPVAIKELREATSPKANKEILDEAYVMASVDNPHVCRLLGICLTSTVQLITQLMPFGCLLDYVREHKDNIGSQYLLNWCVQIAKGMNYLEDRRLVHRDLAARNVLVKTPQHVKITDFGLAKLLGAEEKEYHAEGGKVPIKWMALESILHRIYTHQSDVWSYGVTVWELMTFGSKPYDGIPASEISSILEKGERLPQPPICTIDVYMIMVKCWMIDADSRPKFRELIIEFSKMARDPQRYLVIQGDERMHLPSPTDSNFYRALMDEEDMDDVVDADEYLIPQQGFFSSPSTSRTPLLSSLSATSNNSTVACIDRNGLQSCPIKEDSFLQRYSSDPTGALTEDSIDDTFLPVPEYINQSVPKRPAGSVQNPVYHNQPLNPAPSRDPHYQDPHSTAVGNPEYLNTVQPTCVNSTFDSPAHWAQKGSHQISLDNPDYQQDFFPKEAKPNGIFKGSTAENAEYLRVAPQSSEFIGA

Sequence of RAC-gamma serine/threonine-protein kinase (Homo sapiens) (Q9Y243 whole entry): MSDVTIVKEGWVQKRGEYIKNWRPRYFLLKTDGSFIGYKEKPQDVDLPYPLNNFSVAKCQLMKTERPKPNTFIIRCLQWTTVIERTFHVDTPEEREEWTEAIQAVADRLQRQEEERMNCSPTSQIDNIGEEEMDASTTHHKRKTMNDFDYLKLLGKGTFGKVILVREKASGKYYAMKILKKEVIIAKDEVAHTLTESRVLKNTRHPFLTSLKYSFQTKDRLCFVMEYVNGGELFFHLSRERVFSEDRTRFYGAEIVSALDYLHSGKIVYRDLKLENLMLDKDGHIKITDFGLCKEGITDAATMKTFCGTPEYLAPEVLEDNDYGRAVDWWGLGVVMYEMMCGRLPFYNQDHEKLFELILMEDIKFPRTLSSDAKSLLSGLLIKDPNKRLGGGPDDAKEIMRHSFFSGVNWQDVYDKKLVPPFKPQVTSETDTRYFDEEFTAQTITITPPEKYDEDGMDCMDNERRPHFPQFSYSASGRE
Sequence of Platelet-derived growth factor receptor alpha (Homo sapiens) (P16234 whole entry): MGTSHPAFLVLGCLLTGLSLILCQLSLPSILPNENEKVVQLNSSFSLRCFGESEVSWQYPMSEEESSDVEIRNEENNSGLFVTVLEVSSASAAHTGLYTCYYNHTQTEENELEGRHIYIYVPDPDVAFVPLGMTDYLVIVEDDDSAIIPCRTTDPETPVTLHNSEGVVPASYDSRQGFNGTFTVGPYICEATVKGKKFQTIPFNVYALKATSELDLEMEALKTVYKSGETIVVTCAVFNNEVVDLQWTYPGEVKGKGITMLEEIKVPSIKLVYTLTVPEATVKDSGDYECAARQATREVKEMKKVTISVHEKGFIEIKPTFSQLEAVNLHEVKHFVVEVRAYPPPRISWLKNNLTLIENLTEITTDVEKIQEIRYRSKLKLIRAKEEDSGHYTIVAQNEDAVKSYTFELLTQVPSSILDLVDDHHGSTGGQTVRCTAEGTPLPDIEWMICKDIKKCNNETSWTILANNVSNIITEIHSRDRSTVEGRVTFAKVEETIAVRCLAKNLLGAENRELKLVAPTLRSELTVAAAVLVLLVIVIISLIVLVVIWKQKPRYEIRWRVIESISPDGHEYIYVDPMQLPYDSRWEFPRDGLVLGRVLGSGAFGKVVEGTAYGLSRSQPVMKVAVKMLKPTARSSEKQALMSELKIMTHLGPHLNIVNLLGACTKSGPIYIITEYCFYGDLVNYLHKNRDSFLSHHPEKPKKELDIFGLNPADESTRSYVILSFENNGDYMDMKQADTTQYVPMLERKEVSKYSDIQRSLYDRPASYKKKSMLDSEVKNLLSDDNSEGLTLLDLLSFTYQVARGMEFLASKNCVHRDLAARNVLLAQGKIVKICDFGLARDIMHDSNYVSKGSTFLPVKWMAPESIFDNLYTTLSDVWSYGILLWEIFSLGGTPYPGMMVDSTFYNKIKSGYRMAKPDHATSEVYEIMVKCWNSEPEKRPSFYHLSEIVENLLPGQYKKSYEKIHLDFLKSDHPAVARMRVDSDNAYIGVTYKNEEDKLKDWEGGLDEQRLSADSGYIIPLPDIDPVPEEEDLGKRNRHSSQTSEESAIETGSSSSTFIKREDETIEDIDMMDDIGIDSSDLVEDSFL
Sequence of Fibroblast growth factor receptor 1 (Homo sapiens) (P11362 22-822 limits assumed): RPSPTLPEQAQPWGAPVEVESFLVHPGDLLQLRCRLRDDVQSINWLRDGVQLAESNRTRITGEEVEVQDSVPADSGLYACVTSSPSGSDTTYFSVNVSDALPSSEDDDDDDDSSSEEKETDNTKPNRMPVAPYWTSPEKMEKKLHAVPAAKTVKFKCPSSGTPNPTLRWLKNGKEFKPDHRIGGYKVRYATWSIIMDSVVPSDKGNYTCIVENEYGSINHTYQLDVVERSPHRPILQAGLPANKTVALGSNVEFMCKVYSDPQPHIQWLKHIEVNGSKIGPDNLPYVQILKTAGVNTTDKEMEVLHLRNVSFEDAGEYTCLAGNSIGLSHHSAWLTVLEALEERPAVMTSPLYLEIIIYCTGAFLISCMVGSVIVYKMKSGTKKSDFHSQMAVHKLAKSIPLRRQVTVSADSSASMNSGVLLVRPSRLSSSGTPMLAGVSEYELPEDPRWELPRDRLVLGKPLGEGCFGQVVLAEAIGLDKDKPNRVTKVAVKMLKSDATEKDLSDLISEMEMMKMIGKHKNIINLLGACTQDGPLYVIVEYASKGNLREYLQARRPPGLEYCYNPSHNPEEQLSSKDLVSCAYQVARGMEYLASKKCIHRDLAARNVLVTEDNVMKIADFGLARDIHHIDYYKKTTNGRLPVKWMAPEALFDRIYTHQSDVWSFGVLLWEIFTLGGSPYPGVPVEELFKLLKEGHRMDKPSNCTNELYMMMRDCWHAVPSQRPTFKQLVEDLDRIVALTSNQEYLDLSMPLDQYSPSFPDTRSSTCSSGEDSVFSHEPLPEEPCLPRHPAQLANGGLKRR
Sequence of Casein kinase I isoform alpha (Homo sapiens) (P48729 2-337 limits assumed): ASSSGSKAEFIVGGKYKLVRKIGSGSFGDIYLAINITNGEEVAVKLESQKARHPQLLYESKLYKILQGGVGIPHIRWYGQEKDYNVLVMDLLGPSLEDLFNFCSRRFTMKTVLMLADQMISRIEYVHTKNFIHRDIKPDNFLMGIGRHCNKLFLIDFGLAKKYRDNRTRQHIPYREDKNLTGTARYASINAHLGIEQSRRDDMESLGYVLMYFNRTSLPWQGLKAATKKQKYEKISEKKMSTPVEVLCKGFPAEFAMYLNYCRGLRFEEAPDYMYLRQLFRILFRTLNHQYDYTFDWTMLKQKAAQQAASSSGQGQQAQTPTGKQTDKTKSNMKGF
Sequence of G protein-coupled receptor kinase 4 (Homo sapiens) (P32298 whole entry, looked up, the tested form may be a part): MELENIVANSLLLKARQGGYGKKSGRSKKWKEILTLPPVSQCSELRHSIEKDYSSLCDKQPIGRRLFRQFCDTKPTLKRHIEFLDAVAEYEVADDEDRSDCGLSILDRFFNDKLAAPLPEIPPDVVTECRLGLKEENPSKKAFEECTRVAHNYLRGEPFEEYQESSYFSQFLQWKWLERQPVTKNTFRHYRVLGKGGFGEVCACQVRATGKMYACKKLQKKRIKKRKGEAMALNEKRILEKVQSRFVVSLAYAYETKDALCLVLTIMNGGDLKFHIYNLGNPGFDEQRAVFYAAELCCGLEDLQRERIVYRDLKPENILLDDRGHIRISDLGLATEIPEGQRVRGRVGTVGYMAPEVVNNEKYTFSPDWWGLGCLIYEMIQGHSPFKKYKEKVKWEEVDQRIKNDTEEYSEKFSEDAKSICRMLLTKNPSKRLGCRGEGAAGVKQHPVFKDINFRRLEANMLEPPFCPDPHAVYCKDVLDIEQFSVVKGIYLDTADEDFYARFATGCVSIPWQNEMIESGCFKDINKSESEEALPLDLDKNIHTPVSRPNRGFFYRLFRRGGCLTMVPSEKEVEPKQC
Sequence of Serine/threonine-protein kinase PAK 3 (Homo sapiens) (O75914 whole entry, looked up): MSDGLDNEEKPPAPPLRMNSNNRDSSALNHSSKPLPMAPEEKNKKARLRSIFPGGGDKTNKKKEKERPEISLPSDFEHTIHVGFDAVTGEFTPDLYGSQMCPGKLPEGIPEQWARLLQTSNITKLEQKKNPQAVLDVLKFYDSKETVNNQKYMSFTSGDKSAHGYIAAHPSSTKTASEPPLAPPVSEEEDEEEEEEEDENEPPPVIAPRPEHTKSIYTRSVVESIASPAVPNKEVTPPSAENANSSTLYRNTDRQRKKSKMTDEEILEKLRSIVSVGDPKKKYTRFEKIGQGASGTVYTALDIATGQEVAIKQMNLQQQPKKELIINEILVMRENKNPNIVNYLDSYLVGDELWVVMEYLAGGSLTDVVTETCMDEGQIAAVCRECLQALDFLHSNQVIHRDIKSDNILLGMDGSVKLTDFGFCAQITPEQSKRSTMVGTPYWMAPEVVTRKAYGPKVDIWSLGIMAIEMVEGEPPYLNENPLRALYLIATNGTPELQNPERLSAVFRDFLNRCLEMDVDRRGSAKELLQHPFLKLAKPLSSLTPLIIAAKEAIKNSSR

SMILES	residual activity [1] [%]	residual activity [2] [%]	residual activity [3] [%]	residual activity [4] [%]	residual activity [5] [%]	residual activity [6] [%]	residual activity [7] [%]	residual activity [8] [%]	residual activity [9] [%]	residual activity [10] [%]	residual activity [11] [%]	residual activity [12] [%]	residual activity [13] [%]	residual activity [14] [%]	residual activity [15] [%]	residual activity [16] [%]	residual activity [17] [%]	residual activity [18] [%]
COc1cc2c(Oc3ccc(-c4nc5ccccc5s4)cc3)ncnc2cc1OCCCN1CCN(C)CC1	171	88	13	95	86	54	157	101	73	79	88	0	23	112	89	87	79	94
COc1cc2c(Oc3ccc(-c4nc5ccccc5s4)cc3F)ncnc2cc1OCCCN1CCN(C)CC1	154	83	5	97	94	48	47	93	80	16	90	2	39	113	97	96	94	100
COc1cc2c(Oc3ccc(-c4nc5ccccc5s4)cc3)ncnc2cc1OCCCN1CCCC1	159	94	21	95	86	49	124	102	86	73	85	1	21	79	91	83	94	95
